Measurements taken from PMC12449377, “Psychedelic-like effects induced by 2,5-dimethoxy-4-iodoamphetamine, lysergic acid diethylamide, and psilocybin in male and female C57BL/6J mice” (Psychopharmacology, 2025).

How the values were obtained:
5-HT2A = biological target: T1, 5-HT2A (Mus musculus, UniProt P35363); assay: Competition binding vs [3H]M100907 in mouse brain membranes
T1 construct: tissue BioIVT; host or cells: whole C57BL/6 mouse brain minus cerebellum, male and female
Protocol: (§1) Competition binding studies were conducted in mouse brain tissue as previously described (Glatfelter et al. [2022b]). Briefly, the experiments utilized membranes prepared from whole C57BL/6 mouse brain minus cerebellum (BioIVT, Westbury, NY, USA). […] We assessed the ability of test drugs to compete for [^3H]M100907 binding at 5-HT2A (1 nM) or [^3H]8-OH-DPAT binding at 5-HT1A (0.5 nM). Radioligands were purchased commercially (PerkinElmer, Boston, MA, USA). Nonspecific binding was determined using 10 µM ketanserin for 5-HT2A and serotonin for 5-HT1A. All data represent 3 experiments performed in triplicate.
(§2) Concentration-response data were fit to a single site non-linear regression model. For the HTR studies, potencies were determined from the ascending limb of the dose-response curves using ED50 potency values from [agonist] vs. response (variable slope, four parameter) least squares fit non-linear regression analyses, whereas efficacy was defined by the top output parameter or Emax from the aforementioned analyses. […] Best-fit values for ED50 and Emax from non-linear regression analyses were compared by extra sum-of-squares F tests. Mean effects for each behavioral endpoint were compared using two-way ANOVA (dose x sex), followed by Sidak’s multiple comparisons post-hoc test. Mean effects for pooled mouse behavioral data were compared via Welch’s ANOVA with Dunnett’s T3 post-hoc test, comparing all doses to saline vehicle controls (0 mg/kg). Alpha was set to 0.05 for all analyses.

C57BL/6J mice [1] = assay: Body temperature change in mice; assay type: in vivo, mouse; conditions: for Body Temp Δ (°C) Mean: post 30 min session
Protocol: All mice were injected s.c. with temperature transponders (14 × 2 mm, model IPTT-300, Avidity Science, Waterford Wisconsin, USA) under brief isoflurane immobilization, and were given at least 1 week to recover (Glatfelter et al. [2022b]). Mice were single housed post-implant, and for the duration of the experiments, to protect their devices from being removed by cage mates. Temperature was measured noninvasively using a handheld reader which is sensitive to the transponder signals.
(§3) At 1–2 weeks prior to the beginning of experiments, mice were habituated to handling and receiving s.c. saline injections. On the day of an experiment, mice were acclimated to the testing room in their home cage for at least 30 min prior to the start of sessions. Prior to each session, mice were weighed, and resting body temperatures were recorded. Mice were then placed into experimental chambers for acclimation. Behavioral testing was carried out in TruScan mouse locomotor arenas equipped with photobeam arrays (Coulbourn Instruments, Holliston, MA, USA) that were modified with cylindrical inserts and transparent flooring to aid in semi-automated HTR detection as previously described (Glatfelter et al. [2022a]). After 5 min of acclimation, basal body temperature was recorded followed by s.c. injection of drug or vehicle, and mice were returned to test chambers for 30 min. Dose ranges for each drug were 0.03–10 mg/kg for DOI, 0.03–10 mg/kg for psilocybin, and 0.003–1 mg/kg for LSD. Mice were randomly assigned to specific doses at the beginning of the experiment and received different doses at each session.
(§4) During each session, locomotor activity was quantified via photobeam tracking of distance traveled in cm. Overhead GoPro Hero Black 7 video recordings (120 fps, 960p resolution) were analyzed using a commercially available software package from Clever Sys Inc. (Reston, VA, USA) for the measurement of HTR activity. Mouse body temperature was also collected post-session to calculate temperature change values (basal - post session temperature reading).
as §2

C57BL/6J mice [2] = assay: Locomotor activity (distance traveled) in mice; assay type: in vivo, mouse; conditions: for Locomotor Activity (cm) Mean: 30 min
Protocol: as §3, §4, §2

5-HT1A = biological target: T2, 5-HT1A (Mus musculus, UniProt Q64264); assay: Competition binding vs [3H]8-OH-DPAT in mouse brain membranes
T2 construct: tissue BioIVT; host or cells: whole C57BL/6 mouse brain minus cerebellum, male and female
T2 sequence (Q64264 1-421): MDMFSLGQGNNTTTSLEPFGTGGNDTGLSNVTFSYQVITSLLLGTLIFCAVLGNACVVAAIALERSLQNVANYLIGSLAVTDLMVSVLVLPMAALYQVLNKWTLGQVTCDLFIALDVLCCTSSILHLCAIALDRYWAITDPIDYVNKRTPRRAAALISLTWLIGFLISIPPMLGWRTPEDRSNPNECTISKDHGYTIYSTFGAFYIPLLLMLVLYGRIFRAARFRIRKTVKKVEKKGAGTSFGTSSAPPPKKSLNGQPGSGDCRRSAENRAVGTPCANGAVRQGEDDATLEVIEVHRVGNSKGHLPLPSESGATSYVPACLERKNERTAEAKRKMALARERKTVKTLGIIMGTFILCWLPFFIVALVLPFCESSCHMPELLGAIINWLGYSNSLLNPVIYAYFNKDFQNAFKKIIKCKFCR
Protocol: as §1, §2

[3] = [3H]M100907 Binding ♀ m5-HT2A Ki, female mouse brain membranes
[4] = [3H]M100907 Binding ♂ m5-HT2A Ki, male mouse brain membranes
[5] = [3H]8-OH-DPAT Binding ♀ m5-HT1A Ki, female mouse brain membranes
[6] = [3H]8-OH-DPAT Binding ♂ m5-HT1A Ki, male mouse brain membranes
[7] = male and female mouse brain membranes, summary statement

T1 sequence (P35363 whole entry): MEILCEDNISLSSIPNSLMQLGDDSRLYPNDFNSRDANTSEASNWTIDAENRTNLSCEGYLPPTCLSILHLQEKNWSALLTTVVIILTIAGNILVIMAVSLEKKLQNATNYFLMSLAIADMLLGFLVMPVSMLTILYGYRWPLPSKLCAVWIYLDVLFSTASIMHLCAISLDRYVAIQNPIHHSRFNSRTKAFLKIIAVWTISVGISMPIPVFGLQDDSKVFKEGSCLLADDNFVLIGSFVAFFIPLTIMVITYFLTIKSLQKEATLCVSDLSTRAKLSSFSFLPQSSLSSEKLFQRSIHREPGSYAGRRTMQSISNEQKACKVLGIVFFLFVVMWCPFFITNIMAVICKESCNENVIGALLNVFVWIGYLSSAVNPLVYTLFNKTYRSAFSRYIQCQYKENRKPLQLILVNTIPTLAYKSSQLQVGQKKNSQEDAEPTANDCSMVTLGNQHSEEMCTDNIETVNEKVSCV

## CCN(CC)C(=O)[C@@H]1C=C2c3cccc4[nH]cc(c34)C[C@H]2N(C)C1 [LSD, lysergic acid diethylamide]
5-HT2A; 5-HT2A binding affinity (Ki), males and females, male and female mouse brain membranes, summary statement
  Ki: 1 to 100 nM
5-HT2A; [3]
  Ki: 1.9 nM
5-HT2A; [4]
  Ki: 2.3 nM
C57BL/6J mice [1]; 0.003 mg/kg s.c., female mice
  Body Temp Δ (°C) Mean: -0.1 °C
C57BL/6J mice [1]; 0.003 mg/kg s.c., male mice
  Body Temp Δ (°C) Mean: -0.1 °C
C57BL/6J mice [1]; 0.003 mg/kg s.c., pooled sexes
  Body Temp Δ (°C) Mean: -0.1 °C
C57BL/6J mice [1]; 0.01 mg/kg s.c., female mice
  Body Temp Δ (°C) Mean: -0.1 °C
C57BL/6J mice [1]; 0.01 mg/kg s.c., male mice
  Body Temp Δ (°C) Mean: 0.3 °C
C57BL/6J mice [1]; 0.01 mg/kg s.c., pooled sexes
  Body Temp Δ (°C) Mean: 0.1 °C
C57BL/6J mice [1]; 0.03 mg/kg s.c., female mice
  Body Temp Δ (°C) Mean: -0.1 °C
C57BL/6J mice [1]; 0.03 mg/kg s.c., male mice
  Body Temp Δ (°C) Mean: 0.0 °C
C57BL/6J mice [1]; 0.03 mg/kg s.c., pooled sexes
  Body Temp Δ (°C) Mean: -0.1 °C
C57BL/6J mice [1]; 0.1 mg/kg s.c., female mice
  Body Temp Δ (°C) Mean: -0.3 °C
C57BL/6J mice [1]; 0.1 mg/kg s.c., male mice
  Body Temp Δ (°C) Mean: -0.1 °C
C57BL/6J mice [1]; 0.1 mg/kg s.c., pooled sexes
  Body Temp Δ (°C) Mean: -0.2 °C
C57BL/6J mice [1]; 0.3 mg/kg s.c., female mice
  Body Temp Δ (°C) Mean: -0.4 °C
C57BL/6J mice [1]; 0.3 mg/kg s.c., male mice
  Body Temp Δ (°C) Mean: -0.1 °C
C57BL/6J mice [1]; 0.3 mg/kg s.c., pooled sexes
  Body Temp Δ (°C) Mean: -0.2 °C
C57BL/6J mice [1]; 1 mg/kg s.c.
  Body temperature effect at highest dose: mild hypothermia
C57BL/6J mice [1]; 1 mg/kg s.c., female mice
  Body Temp Δ (°C) Mean: -0.9 °C
C57BL/6J mice [1]; 1 mg/kg s.c., male mice
  Body Temp Δ (°C) Mean: -1.5 °C
C57BL/6J mice [1]; 1 mg/kg s.c., pooled sexes
  Body Temp Δ (°C) Mean: -1.2 °C
C57BL/6J mice [2]; 0.003 mg/kg s.c., female mice
  Locomotor Activity (cm) Mean: 2499.8 cm
C57BL/6J mice [2]; 0.003 mg/kg s.c., male mice
  Locomotor Activity (cm) Mean: 2549.1 cm
C57BL/6J mice [2]; 0.003 mg/kg s.c., pooled sexes
  Locomotor Activity (cm) Mean: 2526 cm
C57BL/6J mice [2]; 0.01 mg/kg s.c., female mice
  Locomotor Activity (cm) Mean: 2581.2 cm
C57BL/6J mice [2]; 0.01 mg/kg s.c., male mice
  Locomotor Activity (cm) Mean: 2649.3 cm
C57BL/6J mice [2]; 0.01 mg/kg s.c., pooled sexes
  Locomotor Activity (cm) Mean: 2615 cm
C57BL/6J mice [2]; 0.03 mg/kg s.c., female mice
  Locomotor Activity (cm) Mean: 2977.4 cm
C57BL/6J mice [2]; 0.03 mg/kg s.c., male mice
  Locomotor Activity (cm) Mean: 2756.4 cm
C57BL/6J mice [2]; 0.03 mg/kg s.c., pooled sexes
  Locomotor Activity (cm) Mean: 2867 cm
C57BL/6J mice [2]; 0.1 mg/kg s.c., female mice
  Locomotor Activity (cm) Mean: 2290.0 cm
C57BL/6J mice [2]; 0.1 mg/kg s.c., male mice
  Locomotor Activity (cm) Mean: 2650.0 cm
C57BL/6J mice [2]; 0.1 mg/kg s.c., pooled sexes
  Locomotor Activity (cm) Mean: 2456 cm
C57BL/6J mice [2]; 0.3 mg/kg s.c., female mice
  Locomotor Activity (cm) Mean: 2309.5 cm
C57BL/6J mice [2]; 0.3 mg/kg s.c., male mice
  Locomotor Activity (cm) Mean: 2123.8 cm
C57BL/6J mice [2]; 0.3 mg/kg s.c., pooled sexes
  Locomotor Activity (cm) Mean: 2217 cm
C57BL/6J mice [2]; 1 mg/kg s.c.
  Locomotor activity effect: decreased locomotion
C57BL/6J mice [2]; 1 mg/kg s.c., female mice
  Locomotor Activity (cm) Mean: 2029.2 cm
C57BL/6J mice [2]; 1 mg/kg s.c., male mice
  Locomotor Activity (cm) Mean: 1571.6 cm
C57BL/6J mice [2]; 1 mg/kg s.c., pooled sexes
  Locomotor Activity (cm) Mean: 1800 cm
5-HT1A; 5-HT1A binding affinity (Ki), males and females, male and female mouse brain membranes, summary statement
  Ki: 1 to 100 nM
5-HT1A; [5]
  Ki: 0.95 nM
5-HT1A; [6]
  Ki: 1.02 nM

## COc1cc(CC(C)N)c(OC)cc1I (stereo not shown) [DOI, 2,5-dimethoxy-4-iodoamphetamine]
5-HT2A; [3]
  Ki: 11 nM
5-HT2A; [4]
  Ki: 13 nM
5-HT2A; [7]
  5-HT2A binding affinity (Ki), males and females: low nanomolar affinity
C57BL/6J mice [1]; 0.03 mg/kg s.c., female mice
  Body Temp Δ (°C) Mean: 0.0 °C
C57BL/6J mice [1]; 0.03 mg/kg s.c., male mice
  Body Temp Δ (°C) Mean: 0.2 °C
C57BL/6J mice [1]; 0.03 mg/kg s.c., pooled sexes
  Body Temp Δ (°C) Mean: 0.1 °C
C57BL/6J mice [1]; 0.1 mg/kg s.c., female mice
  Body Temp Δ (°C) Mean: 0.2 °C
C57BL/6J mice [1]; 0.1 mg/kg s.c., male mice
  Body Temp Δ (°C) Mean: 0.3 °C
C57BL/6J mice [1]; 0.1 mg/kg s.c., pooled sexes
  Body Temp Δ (°C) Mean: -0.1 °C
C57BL/6J mice [1]; 0.3 mg/kg s.c., female mice
  Body Temp Δ (°C) Mean: 0.2 °C
C57BL/6J mice [1]; 0.3 mg/kg s.c., male mice
  Body Temp Δ (°C) Mean: 0.6 °C
C57BL/6J mice [1]; 0.3 mg/kg s.c., pooled sexes
  Body Temp Δ (°C) Mean: 0.2 °C
C57BL/6J mice [1]; 1 mg/kg s.c., female mice
  Body Temp Δ (°C) Mean: -0.3 °C
C57BL/6J mice [1]; 1 mg/kg s.c., male mice
  Body Temp Δ (°C) Mean: -0.1 °C
C57BL/6J mice [1]; 1 mg/kg s.c., pooled sexes
  Body Temp Δ (°C) Mean: 0.4 °C
C57BL/6J mice [1]; 3 mg/kg s.c., female mice
  Body Temp Δ (°C) Mean: -0.3 °C
C57BL/6J mice [1]; 3 mg/kg s.c., male mice
  Body Temp Δ (°C) Mean: -0.1 °C
C57BL/6J mice [1]; 3 mg/kg s.c., pooled sexes
  Body Temp Δ (°C) Mean: -0.2 °C
C57BL/6J mice [1]; 10 mg/kg s.c., female mice
  Body Temp Δ (°C) Mean: -0.4 °C
C57BL/6J mice [1]; 10 mg/kg s.c., male mice
  Body Temp Δ (°C) Mean: -0.9 °C
C57BL/6J mice [1]; 10 mg/kg s.c., pooled sexes
  Body Temp Δ (°C) Mean: -0.6 °C
C57BL/6J mice [1]; 0.03-10 mg/kg s.c., both sexes
  Body temperature vs. vehicle controls: did not change body temperature
C57BL/6J mice [2]; 0.03 mg/kg s.c., female mice
  Locomotor Activity (cm) Mean: 2149 cm
C57BL/6J mice [2]; 0.03 mg/kg s.c., male mice
  Locomotor Activity (cm) Mean: 2753 cm
C57BL/6J mice [2]; 0.03 mg/kg s.c., pooled sexes
  Locomotor Activity (cm) Mean: 2408 cm
C57BL/6J mice [2]; 0.1 mg/kg s.c., female mice
  Locomotor Activity (cm) Mean: 2292 cm
C57BL/6J mice [2]; 0.1 mg/kg s.c., male mice
  Locomotor Activity (cm) Mean: 3045 cm
C57BL/6J mice [2]; 0.1 mg/kg s.c., pooled sexes
  Locomotor Activity (cm) Mean: 2606 cm
C57BL/6J mice [2]; 1 mg/kg s.c.
  Locomotor activity effect: marginal increase
C57BL/6J mice [2]; 1 mg/kg s.c., female mice
  Locomotor Activity (cm) Mean: 3246.7 cm
C57BL/6J mice [2]; 1 mg/kg s.c., male mice
  Locomotor Activity (cm) Mean: 4033.6 cm
C57BL/6J mice [2]; 1 mg/kg s.c., pooled sexes
  Locomotor Activity (cm) Mean: 3640 cm
C57BL/6J mice [2]; 3 mg/kg s.c., female mice
  Locomotor Activity (cm) Mean: 3192.6 cm
C57BL/6J mice [2]; 3 mg/kg s.c., male mice
  Locomotor Activity (cm) Mean: 3289.3 cm
C57BL/6J mice [2]; 3 mg/kg s.c., pooled sexes
  Locomotor Activity (cm) Mean: 3241 cm
C57BL/6J mice [2]; 10 mg/kg s.c., female mice
  Locomotor Activity (cm) Mean: 2459.7 cm
C57BL/6J mice [2]; 10 mg/kg s.c., male mice
  Locomotor Activity (cm) Mean: 2529.1 cm
C57BL/6J mice [2]; 10 mg/kg s.c., pooled sexes
  Locomotor Activity (cm) Mean: 2492 cm
5-HT1A; [5]
  Ki: 2650 nM
5-HT1A; [6]
  Ki: 2870 nM
5-HT1A; [7]
  5-HT1A binding affinity (Ki), males and females: µM affinity
